{"source": "paper PMC7173930", "about": "“EAT-18 is an essential auxiliary protein interacting with the non-alpha nAChR subunit EAT-2 to form a functional receptor” (PLoS Pathogens, 2020)", "key": {"[1]": {"test_system": "nAChRs expressed in the pharynx of A. suum", "test": "tissue or blood", "type": "cell-based", "conditions": "for Emax: Ascaris suum, read-out: % change in membrane conductance (δG) normalized to the ACh δG; for mode of antagonism of the pharyngeal ACh response / maximal response (δG) of ACh in the presence of antagonist: antagonist 10 μM; for mode of antagonism of the pharyngeal ACh response: ACh pEC50 unchanged, maximal response inhibited; for maximal response (δG) of ACh in the presence of antagonist / normalized response (δG) to muscarinic agonists, control ACh = 100%: mean±SE; for normalized response (δG) to muscarinic agonists, control ACh = 100%: 100 μM, 10 s application, n=4", "procedure": "A. suum pharyngeal dissections and electrophysiology recordings were adapted from Martin [49]. Briefly, pharynx was dissected out from the head region of the worm and mounted on Sylgard (Sigma-Aldrich Inc., USA)—lined in a double jacketed bath chamber maintained at 28°C. The muscle layer surrounding the anterior 3rd of the pharynx was preserved for anchoring. The intestine attached to the posterior end of the pharynx was used for stretching and pinning down. The preparation was continuously perfused with calcium-free Ascaris Perienteric Fluid-Ringer (calcium-free APF-Ringer) composition (mM): NaCl 23, Na-acetate 110, KCl 24, MgCl2 11, glucose 11, and HEPES 5; NaOH or acetic acid was added to adjust the pH to 7.6. […] The rate of localized perfusion was 3.5–4 ml min^−1 through a 20-gauge needle, which was placed directly above the recording region of the pharynx. […] We used 3 M potassium acetate in our micropipettes to get the final resistances of 4–7 MΩ for the voltage sensing and 0.5–1 MΩ for the current injecting electrode for current-clamp recordings. The current-injecting electrode injected hyperpolarizing step currents of −1000 nA for 500 ms at 0.3 Hz.\nWe constructed the sigmoidal concentration-response plots by fitting the data by nonlinear regression to determine the pEC50 and the maximal response (Rmax). Extra sum of squares F-test was used to test statistical differences between pEC50, slope, and maximal response. The significance levels were set to P<0.05.\nIn applications containing arecoline and pilocarpine, we used mecamylamine, a nAChR antagonist (30µM) to inhibit nAChRs and to allow only mAChR activation."}, "[2]": {"target": "Asu-EAT-2 nAChR (Ascaris suum, UniProt F1L9Y6)", "sequence (F1L9Y6 entry or part of it)": "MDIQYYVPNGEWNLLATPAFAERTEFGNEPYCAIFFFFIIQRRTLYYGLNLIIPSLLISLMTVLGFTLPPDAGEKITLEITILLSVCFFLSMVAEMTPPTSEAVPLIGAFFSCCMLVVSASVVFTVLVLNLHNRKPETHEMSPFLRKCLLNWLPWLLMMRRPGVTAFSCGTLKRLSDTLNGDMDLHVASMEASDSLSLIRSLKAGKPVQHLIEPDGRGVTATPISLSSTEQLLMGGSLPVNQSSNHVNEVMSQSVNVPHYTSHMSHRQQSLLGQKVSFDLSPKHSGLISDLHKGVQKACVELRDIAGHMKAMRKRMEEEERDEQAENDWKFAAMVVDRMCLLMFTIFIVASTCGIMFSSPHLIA", "sequence (F1L1D9 entry or part of it, further chain)": "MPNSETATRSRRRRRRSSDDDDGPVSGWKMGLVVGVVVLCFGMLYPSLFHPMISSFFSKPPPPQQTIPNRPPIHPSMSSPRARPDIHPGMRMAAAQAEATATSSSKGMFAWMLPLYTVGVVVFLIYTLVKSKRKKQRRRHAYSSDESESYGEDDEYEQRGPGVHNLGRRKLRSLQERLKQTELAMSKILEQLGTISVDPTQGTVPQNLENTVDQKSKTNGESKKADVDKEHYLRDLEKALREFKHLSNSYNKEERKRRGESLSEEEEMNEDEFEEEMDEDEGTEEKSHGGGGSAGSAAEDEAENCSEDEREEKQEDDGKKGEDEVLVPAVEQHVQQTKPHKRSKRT", "test": "cell-based", "type": "cell-based, A. suum", "conditions": "for Emax: read-out: current response normalized to the control 100 μM ACh current"}, "[3]": {"target": "T1, Cel-EAT-2 and Cel-EAT-18c nAChR (Caenorhabditis elegans, UniProt Q9U298)", "T1 sequence (Q9U298 22-474)": "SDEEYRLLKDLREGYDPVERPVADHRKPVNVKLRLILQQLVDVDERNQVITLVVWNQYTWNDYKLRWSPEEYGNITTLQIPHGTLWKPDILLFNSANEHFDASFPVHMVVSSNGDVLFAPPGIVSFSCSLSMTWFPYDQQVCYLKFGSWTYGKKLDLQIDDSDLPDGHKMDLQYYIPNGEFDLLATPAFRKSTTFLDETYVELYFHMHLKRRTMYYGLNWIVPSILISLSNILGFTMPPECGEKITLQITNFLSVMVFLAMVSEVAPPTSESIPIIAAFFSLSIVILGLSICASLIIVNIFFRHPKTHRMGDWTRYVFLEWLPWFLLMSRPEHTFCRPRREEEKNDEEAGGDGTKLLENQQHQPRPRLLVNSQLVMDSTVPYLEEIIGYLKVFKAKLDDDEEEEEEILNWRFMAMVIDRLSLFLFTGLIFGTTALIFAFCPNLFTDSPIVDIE", "test": "Two-electrode voltage-clamp of Cel-EAT-2 + Cel-EAT-18c nAChR expressed in Xenopus oocytes", "type": "cell-based", "conditions": "for Emax at 100 µM: read-out: current response normalized to the control 100 μM ACh current (Imax); for Emax at 100 µM / current response normalized to the control 100 μM ACh current (Imax): agonist 100 μM, n≥6"}, "[4]": {"test_system": "A. suum muscarinic receptor", "set-up": "method as in earlier work", "conditions": "all used at 100 µM; ref 1 Kimber M.J. et al. Int J Parasitol 39: 1215-1222 (2009); cited from earlier work"}}, "note": "Values joined by “and” are separate entries in the source; they are usually repeats but may differ in a detail not shown here. Equal values may be shown once. Read-outs that look alike come from different tables or passages of the source.", "data": [{"compound": "C[N+](C)(C)CCCCCC[N+](C)(C)C", "note": "[hexamethonium]", "values": [{"measurement": "% inhibition of 100 μM ACh membrane conductance (δG)", "setting": "[1]", "value": "26.8±1.9", "unit": "%"}]}, {"compound": "c1ccc([C@H]2CN3CCSC3=N2)cc1", "note": "[levamisole]", "values": [{"measurement": "Emax", "setting": "[1]", "value": "1.8 ± 0.61", "unit": "%"}, {"measurement": "current response normalized to the control 100 μM ACh current", "setting": "[2]", "value": "failed to activate the receptor"}, {"measurement": "Emax", "setting": "[2]", "value": 0, "unit": "%"}, {"measurement": "Emax at 100 µM", "setting": "[3]; mean±SEM", "value": 0, "unit": "%"}]}, {"compound": "CN1[C@@H](CC(=O)c2ccccc2)CCC[C@H]1C[C@H](O)c1ccccc1", "note": "[lobeline]", "values": [{"measurement": "Emax at 100 µM", "setting": "[3]; mean±SEM", "value": 0, "unit": "%"}]}, {"compound": "CNC1(C)C2CCC(C2)C1(C)C", "note": "(stereo not shown) [mecamylamine]", "values": [{"measurement": "% inhibition of 100 μM ACh membrane conductance (δG)", "setting": "[1]", "value": "92% and 92.2±1.9%"}]}, {"compound": "CC(=O)OC(C)C[N+](C)(C)C", "note": "(stereo not shown) [methacholine]", "values": [{"measurement": "current response normalized to the control 100 μM ACh current (Imax)", "setting": "[3]; mean±SEM", "value": "73 ± 5.3", "unit": "%"}, {"measurement": "Hill slope (nH)", "setting": "[3]; agonist concentration-response, mean±SEM", "value": "3.5±1.3"}, {"measurement": "Emax at 100 µM", "setting": "[3]; mean±SEM", "value": "73 ± 5.3", "unit": "%"}, {"measurement": "EC50", "setting": "[3]; read-out: pEC50 (converted)", "value": 79.4, "unit": "µM"}]}, {"compound": "CCN1C[C@]2(COC(=O)c3ccccc3N3C(=O)C[C@H](C)C3=O)CC[C@H](OC)[C@@]34[C@@H]5C[C@H]6[C@H](OC)[C@@H]5[C@](O)(C[C@@H]6OC)[C@@](O)([C@@H](OC)[C@H]23)[C@@H]14", "note": "[methyllycaconitine]", "values": [{"measurement": "% inhibition of 100 μM ACh membrane conductance (δG)", "setting": "[1]", "value": "62.6±3.7", "unit": "%"}, {"measurement": "mode of antagonism of the pharyngeal ACh response", "setting": "[1]", "value": "non-competitive antagonists"}, {"measurement": "maximal response (δG) of ACh in the presence of antagonist", "setting": "[1]", "value": "57.0±4.6", "unit": "μS"}]}, {"compound": "Cc1ccsc1/C=C/C1=NCCCN1C", "note": "[morantel]", "values": [{"measurement": "Emax", "setting": "[1]", "value": "0.3 ± 0.3", "unit": "%"}, {"measurement": "Emax", "setting": "[2]; mean±SEM, n≥5", "value": 0, "unit": "%"}, {"measurement": "current response normalized to the control 100 μM ACh current (Imax)", "setting": "[3]; mean±SEM", "value": "did not activate the receptor"}]}, {"compound": "c1cncc([C@@H]2CCCN2)c1", "note": "[nornicotine]", "values": [{"measurement": "Emax at 100 µM", "setting": "[3]; mean±SEM", "value": 0, "unit": "%"}]}, {"compound": "CN1CCCN=C1/C=C/c1cccc(O)c1", "note": "[oxantel]", "values": [{"measurement": "Emax", "setting": "[1]", "value": 0, "unit": "%"}, {"measurement": "Emax", "setting": "[2]; mean±SEM, n≥5", "value": "3 ± 1.3", "unit": "%"}, {"measurement": "current response normalized to the control 100 μM ACh current (Imax)", "setting": "[3]; mean±SEM", "value": "11 ± 1.3", "unit": "%"}, {"measurement": "Emax at 100 µM", "setting": "[3]; mean±SEM", "value": "11 ± 1.3", "unit": "%"}]}, {"compound": "O=C1CCCN1CC#CCN1CCCC1", "note": "[oxotremorine]", "values": [{"measurement": "normalized response (δG) to muscarinic agonists, control ACh = 100%", "setting": "[1]", "value": "1.8±0.8", "unit": "%"}, {"measurement": "response relative to ACh (rank order series of muscarinic agonists)", "setting": "[4]", "value": 61, "unit": "%"}]}, {"compound": "CN1C(=O)[C@]23C[C@H]4C(C)(C)[C@@]5(C[C@@]41CN2CC[C@@]3(C)O)C(=O)Nc1c5ccc2c1OC=CC(C)(C)O2", "note": "[paraherquamide]", "values": [{"measurement": "% inhibition of 100 μM ACh membrane conductance (δG)", "setting": "[1]", "value": "37.2±8.7", "unit": "%"}, {"measurement": "mode of antagonism of the pharyngeal ACh response", "setting": "[1]", "value": "non-competitive antagonists"}, {"measurement": "maximal response (δG) of ACh in the presence of antagonist", "setting": "[1]", "value": "87.7±5.7", "unit": "μS"}, {"measurement": "Imax of ACh concentration-response in the presence of antagonist", "setting": "[3]; antagonist 30 μM", "value": "40.2±2.7", "unit": "%"}]}, {"compound": "CC[C@@H]1C(=O)OC[C@@H]1Cc1cncn1C", "note": "[pilocarpine]", "values": [{"measurement": "normalized response (δG) to muscarinic agonists, control ACh = 100%", "setting": "[1]; in the presence of mecamylamine 30 μM", "value": "0.7±0.7", "unit": "%"}, {"measurement": "response relative to ACh (rank order series of muscarinic agonists)", "setting": "[4]", "value": 14, "unit": "%"}]}, {"compound": "CN1CCCN=C1/C=C/c1cccs1", "note": "[pyrantel]", "values": [{"measurement": "Emax", "setting": "[1]", "value": 0, "unit": "%"}, {"measurement": "current response normalized to the control 100 μM ACh current", "setting": "[2]", "value": "failed to activate the receptor"}, {"measurement": "Emax", "setting": "[2]", "value": 0, "unit": "%"}, {"measurement": "Emax at 100 µM", "setting": "[3]; mean±SEM", "value": 0, "unit": "%"}]}, {"compound": "C[N+](C)(CCOc1ccccc1)Cc1cccs1", "note": "[thenium]", "values": [{"measurement": "Emax", "setting": "[1]", "value": "6.1 ± 1.5", "unit": "%"}, {"measurement": "Emax", "setting": "[2]; mean±SEM, n≥5", "value": 0, "unit": "%"}]}, {"compound": "C/C(=N/c1ccc(/N=C/c2ccc(/C=N/c3ccc(/N=C(/C)N(C)C)cc3)cc2)cc1)N(C)C", "note": "[tribendimidine]", "values": [{"measurement": "% change in membrane conductance (δG) normalized to the ACh δG", "setting": "[1]; normalized to 100 μM ACh (10 s), mean±SEM, n≥4", "value": "0.0±0.0", "unit": "%"}]}, {"compound": "α-bungarotoxin [α-BTX]", "values": [{"measurement": "Imax of ACh concentration-response in the presence of antagonist", "setting": "[3]", "value": "86.0±2.4", "unit": "%"}, {"measurement": "effect on sensitivity and efficacy of the receptor for ACh", "setting": "[3]", "value": "not altered"}]}, {"compound": "α-cotinine", "values": [{"measurement": "current response normalized to the control 100 μM ACh current (Imax)", "setting": "[3]; mean±SEM", "value": "0.0±0.0", "unit": "%"}]}]}
